How the values were obtained:
Assay in all cases: relative viability (nuclei count vs DMSO), 5 days (fraction); higher = more cells survive
[1] = compound: COc1cc2nc(N3CCCN(C)CC3)nc(NC3CCN(Cc4ccccc4)CC3)c2cc1OC + Cc1cc(Nc2cc(N3CCN(C)CC3)nc(Sc3ccc(NC(=O)C4CC4)cc3)n2)n[nH]1 [Tozasertib] (partner 0.1 µM)
In short: (§1)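 Lung cancer cell lines in 1536-well plates were dosed by pin tool the day after seeding, either with one drug alone or with a fixed anchor-drug dose plus five library-drug doses (not always all listed) in √10 steps. After 5 days, cells were fixed and their nuclei stained in one step (final 0.05% Triton X-100, 1% formaldehyde, 1 ug/ml Hoechst), then counted on 4× images. Relative viability is the nuclei count in treated wells divided by that in vehicle wells. Values are medians of duplicate plates.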

AZD6482 + Palbociclib = compound: Cc1cc([C@@H](C)Nc2ccccc2C(=O)O)c2nc(N3CCOCC3)cc(=O)n2c1 [AZD6482] + CC(=O)c1c(C)c2cnc(Nc3ccc(N4CCNCC4)cn3)nc2n(C2CCCC2)c1=O [Palbociclib] (partner 0.5 µM)
In short: as §1

AZD6482 + Navitoclax = compound: Cc1cc([C@@H](C)Nc2ccccc2C(=O)O)c2nc(N3CCOCC3)cc(=O)n2c1 [AZD6482] + CC1(C)CCC(c2ccc(Cl)cc2)=C(CN2CCN(c3ccc(C(=O)NS(=O)(=O)c4ccc(N[C@H](CCN5CCOCC5)CSc5ccccc5)c(S(=O)(=O)C(F)(F)F)c4)cc3)CC2)C1 [Navitoclax] (partner 0.5 µM)
In short: as §1

AZD6482 + Linsitinib = compound: Cc1cc([C@@H](C)Nc2ccccc2C(=O)O)c2nc(N3CCOCC3)cc(=O)n2c1 [AZD6482] + C[C@]1(O)C[C@@H](c2nc(-c3ccc4ccc(-c5ccccc5)nc4c3)c3c(N)nccn32)C1 [Linsitinib] (partner 1 µM)
In short: as §1

| Cell Line | relative viability ([1]; first compound 0.2 µM) | relative viability ([1]; first compound 0.6325 µM) | relative viability ([1]; first compound 2 µM) | relative viability ([1]; first compound 6.325 µM) | relative viability (AZD6482 + Palbociclib; first compound 0.08 µM) | relative viability (AZD6482 + Palbociclib; first compound 0.253 µM) | relative viability (AZD6482 + Palbociclib; first compound 0.8 µM) | relative viability (AZD6482 + Palbociclib; first compound 2.53 µM) | relative viability (AZD6482 + Palbociclib; first compound 8 µM) | relative viability (AZD6482 + Navitoclax; first compound 0.08 µM) | relative viability (AZD6482 + Navitoclax; first compound 0.253 µM) | relative viability (AZD6482 + Navitoclax; first compound 0.8 µM) | relative viability (AZD6482 + Navitoclax; first compound 2.53 µM) | relative viability (AZD6482 + Navitoclax; first compound 8 µM) | relative viability (AZD6482 + Linsitinib; first compound 0.08 µM) | relative viability (AZD6482 + Linsitinib; first compound 0.253 µM) | relative viability (AZD6482 + Linsitinib; first compound 0.8 µM) | relative viability (AZD6482 + Linsitinib; first compound 2.53 µM) | relative viability (AZD6482 + Linsitinib; first compound 8 µM) |
| --- | --- | --- | --- | --- | --- | --- | --- | --- | --- | --- | --- | --- | --- | --- | --- | --- | --- | --- | --- |
| PC-14 | 0.587 | 0.61 | 0.64 | 0.505 | 0.447 | 0.524 | 0.578 | 0.503 | 0.519 | 0.926 | 1 | 1.04 | 0.879 | 0.96 | 0.93 | 0.966 | 1.02 | 0.675 | 0.736 |
| NCI-H1666 | 0.569 | 0.727 | 0.635 | 0.625 | 0.637 | 0.576 | 0.722 | 0.638 | 0.681 | 0.794 | 0.846 | 0.706 | 0.749 | 0.528 | 0.536 | 0.586 | 0.63 | 0.589 | 0.574 |
| NCI-H2085 | 0.884 | 0.895 | 0.971 | 0.612 | 0.408 | 0.379 | 0.336 | 0.273 | 0.343 | 0.803 | 0.585 | 0.538 | 0.395 | 0.462 | 0.453 | 0.422 | 0.327 | 0.26 | 0.467 |
| NCI-H1734 | 0.277 | 0.249 | 0.26 | 0.217 | 0.301 | 0.333 | 0.346 | 0.298 | 0.272 | 0.73 | 0.604 | 0.726 | 0.449 | 0.776 | 0.666 | 0.589 | 0.701 | 0.384 | 0.554 |
| NCI-H2126 | 0.818 | 0.874 | 0.868 | 0.826 | 0.356 | 0.383 | 0.351 | 0.314 | 0.36 | 0.744 | 0.671 | 0.727 | 0.571 | 0.543 | 0.551 | 0.591 | 0.518 | 0.485 | 0.548 |
| EMC-BAC-2 | 0.264 | 0.258 | 0.32 | 0.317 | 0.494 | 0.491 | 0.518 | 0.46 | 0.429 | 1.09 | 1.08 | 1.12 | 0.916 | 0.971 | 0.744 | 0.681 | 0.781 | 0.529 | 0.587 |
| NCI-H1993 | 0.583 | 0.622 | 0.604 | 0.625 | 0.503 | 0.579 | 0.638 | 0.495 | 0.484 | 0.779 | 0.784 |  |  | 0.654 | 0.759 | 0.775 |  |  | 0.654 |
| NCI-H520 | 0.405 | 0.405 | 0.437 | 0.507 | 0.123 | 0.157 | 0.179 | 0.146 | 0.15 | 0.839 | 0.785 | 0.703 |  | 0.344 | 0.773 | 0.623 | 0.59 |  | 0.412 |
| NCI-H647 | 0.486 | 0.272 | 0.366 | 0.207 | 0.305 | 0.293 | 0.309 | 0.241 | 0.195 | 0.949 |  | 0.929 | 0.555 | 0.806 | 0.877 |  | 0.739 | 0.7 | 0.659 |
